Laboratory results taken from ChEMBL document CHEMBL1201862, “PubChem BioAssay data set” (2004).
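1) Cells in 96-well plates. 2) Compound, 48 h, 5 concentrations. 3) Linear interpolation between surrounding doses. 4) Unreached endpoint = highest concentration. GI50 marks 50% less growth.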 The source made the active and inactive calls. Rule as the data show it: active = GI50 up to about 1.1 µM and inactive = higher.

Experiments:
Experiment in all cases: NCI anticancer screen, dose series, 48 h
SK-MEL-28 = system: SK-MEL-28
TK-10 = system: TK-10
Hs-578T = system: Hs-578T
OVCAR-5 = system: OVCAR-5
MDA-MB-435 = system: MDA-MB-435
SNB-75 = system: SNB-75
SR = system: SR
T47D = system: T47D
HOP-92 = system: HOP-92
SF-539 = system: SF-539
A549 = system: A549
MDA-MB-231 = system: MDA-MB-231
OVCAR-4 = system: OVCAR-4
MOLT-4 = system: MOLT-4
MCF7 = system: MCF7
HCT-116 = system: HCT-116
RPMI-8226 = system: RPMI-8226
A498 = system: A498
DU-145 = system: DU-145
SK-MEL-5 = system: SK-MEL-5

SMILES	GI50 (SK-MEL-28)	GI50 (TK-10)	GI50 (Hs-578T)	GI50 (OVCAR-5)	GI50 (MDA-MB-435)	GI50 (SNB-75)	GI50 (SR)	GI50 (T47D)	GI50 (HOP-92)	GI50 (SF-539)	GI50 (A549)	GI50 (MDA-MB-231)	GI50 (OVCAR-4)	GI50 (MOLT-4)	GI50 (MCF7)	GI50 (HCT-116)	GI50 (RPMI-8226)	GI50 (A498)	GI50 (DU-145)	GI50 (SK-MEL-5)
c1cc(CSSCc2ccncc2)ccn1	64 µM (inactive)	13.8 µM (inactive)	29.2 µM (inactive)	55.5 µM (inactive)	20.6 µM (inactive)	57.1 µM (inactive)	3.44 µM (inactive)	> 67.9 µM (inactive)	25.9 µM (inactive)	8.02 µM (inactive)	27.3 µM (inactive)	25.9 µM (inactive)	> 74.3 µM (inactive)	3.21 µM (inactive)	32.8 µM (inactive)	14.1 µM (inactive)	9.18 µM (inactive)	42.7 µM (inactive)	28.9 µM (inactive)	17.7 µM (inactive)
O=C(O)CCCSc1nc2ccccc2s1	> 100 µM (inactive)	> 100 µM (inactive)	> 100 µM (inactive)	> 100 µM (inactive)	> 100 µM (inactive)	> 100 µM (inactive)	> 100 µM (inactive)	> 100 µM (inactive)	> 100 µM (inactive)	> 100 µM (inactive)	> 100 µM (inactive)	> 100 µM (inactive)	> 100 µM (inactive)	> 100 µM (inactive)	> 100 µM (inactive)	> 100 µM (inactive)	> 100 µM (inactive)	> 100 µM (inactive)	> 100 µM (inactive)	> 100 µM (inactive)
CNC1C(=O)C(C)C(O)(C(CC(C)C(O)/C=C/C=C/CNC(=O)C(C)(C)C(O)\C(C)=C/C=C\C=C\Cc2cnc(C)o2)OC)C12C(=O)OC2C.CNC1C(=O)C(C)C(O)(C(CC(C)C(O)/C=C/C=C/CNC(=O)C(C)(C)C(O)\C(C)=C/C=C\C=C\Cc2cnc(C)o2)OC)C12C(=O)OC2COC (stereo not given)	23.1 µM (inactive)	11.9 µM (inactive)	12.4 µM (inactive)	20.6 µM (inactive)	16 µM (inactive)	0.942 µM (active)	15.1 µM (inactive)	0.202 µM (active)	2.72 µM (inactive)	23.2 µM (inactive)	0.78 µM (active)	26.9 µM (inactive)	0.345 µM (active)	8.85 µM (inactive)	0.354 µM (active)	15.1 µM (inactive)	0.711 µM (active)	28.4 µM (inactive)	31.5 µM (inactive)	0.191 µM (active)
CCCCCC(=O)Nc1[nH]nnc1C(N)=O	> 100 µM (inactive)	> 100 µM (inactive)	> 100 µM (inactive)	> 100 µM (inactive)	> 100 µM (inactive)	> 100 µM (inactive)	> 100 µM (inactive)	> 100 µM (inactive)	92.5 µM (inactive)	> 100 µM (inactive)	> 100 µM (inactive)	> 100 µM (inactive)	> 100 µM (inactive)	> 100 µM (inactive)	> 100 µM (inactive)	> 100 µM (inactive)	> 100 µM (inactive)	> 100 µM (inactive)	> 100 µM (inactive)	> 100 µM (inactive)
Clc1ccc(-c2nn3c(COc4cccc(OCc5nnc6sc(-c7ccc(Cl)cc7)nn56)c4)nnc3s2)cc1	7.78 µM (inactive)	36.8 µM (inactive)	59 µM (inactive)	28.6 µM (inactive)	19.4 µM (inactive)	23 µM (inactive)	11.2 µM (inactive)	17.3 µM (inactive)	30.1 µM (inactive)	26.9 µM (inactive)	25.8 µM (inactive)	21.2 µM (inactive)	12.9 µM (inactive)	14.3 µM (inactive)	14.1 µM (inactive)	18.6 µM (inactive)	22.1 µM (inactive)	15.7 µM (inactive)	25.4 µM (inactive)	15.2 µM (inactive)
O=C1OC(CN2CCN(c3ccccc3)CC2)CN1C(=S)Nc1ccccc1 (stereo not given)	> 100 µM (inactive)	> 100 µM (inactive)	> 100 µM (inactive)	> 100 µM (inactive)	> 100 µM (inactive)	65.6 µM (inactive)	> 100 µM (inactive)	> 100 µM (inactive)	> 100 µM (inactive)	> 100 µM (inactive)	> 100 µM (inactive)	> 100 µM (inactive)	> 100 µM (inactive)	> 100 µM (inactive)	> 100 µM (inactive)	> 100 µM (inactive)	92.5 µM (inactive)	> 100 µM (inactive)	> 100 µM (inactive)	> 100 µM (inactive)
O=C(Nc1nnc(-c2ccc(Cl)cc2)o1)C(SC(=S)N1CCCCC1)c1ccccc1 (stereo not given)	18.1 µM (inactive)	34 µM (inactive)	26.2 µM (inactive)	21.5 µM (inactive)	21.2 µM (inactive)	39.1 µM (inactive)	3.91 µM (inactive)	27.2 µM (inactive)	22.7 µM (inactive)	30 µM (inactive)	16.4 µM (inactive)	19.4 µM (inactive)	22 µM (inactive)	1.31 µM (inactive)	18.7 µM (inactive)	12.7 µM (inactive)	11.2 µM (inactive)	18.5 µM (inactive)	25.7 µM (inactive)	15.7 µM (inactive)
ON[C@@H]1C=C[C@H](n2cnc3c(NC4CC4)ncnc32)C1	> 100 µM (inactive)	> 100 µM (inactive)	> 100 µM (inactive)	> 100 µM (inactive)	> 100 µM (inactive)	> 100 µM (inactive)	88.3 µM (inactive)	> 100 µM (inactive)	> 100 µM (inactive)	> 100 µM (inactive)	> 100 µM (inactive)	> 100 µM (inactive)	> 100 µM (inactive)	> 100 µM (inactive)	> 100 µM (inactive)	86.5 µM (inactive)	> 100 µM (inactive)	> 100 µM (inactive)	> 100 µM (inactive)	> 100 µM (inactive)
CC(=O)c1cccc2c1CC1(C2)Cc2ccc3c(c2C1=O)CCC3 (stereo not given)	42.1 µM (inactive)	24.2 µM (inactive)	32.7 µM (inactive)	53.6 µM (inactive)	32.1 µM (inactive)	35.9 µM (inactive)	14.8 µM (inactive)	29.1 µM (inactive)	12.6 µM (inactive)	82.2 µM (inactive)	23.3 µM (inactive)	32.6 µM (inactive)	29.5 µM (inactive)	25.3 µM (inactive)	9.57 µM (inactive)	27.7 µM (inactive)	17.3 µM (inactive)	> 100 µM (inactive)	79.1 µM (inactive)	14 µM (inactive)
CCOC(=O)C(O)Cc1cnc2ccccc2n1 (stereo not given)	> 100 µM (inactive)	> 100 µM (inactive)	> 100 µM (inactive)	> 100 µM (inactive)	> 100 µM (inactive)	> 100 µM (inactive)	> 100 µM (inactive)	> 100 µM (inactive)	> 100 µM (inactive)	> 100 µM (inactive)	> 100 µM (inactive)	> 100 µM (inactive)	> 100 µM (inactive)	> 100 µM (inactive)	80.7 µM (inactive)	> 100 µM (inactive)	> 100 µM (inactive)	> 100 µM (inactive)	> 100 µM (inactive)	> 100 µM (inactive)
O=[N+]([O-])c1cccc2nc3ccccc3c(NCCC[N+]3([O-])CCOCC3)c12	0.29 µM (active)	0.697 µM (active)	0.433 µM (active)	0.327 µM (active)	0.157 µM (active)	0.195 µM (active)	0.026 µM (active)	0.171 µM (active)	0.0935 µM (active)	0.275 µM (active)	0.0959 µM (active)	0.247 µM (active)	0.12 µM (active)	0.0687 µM (active)	0.0548 µM (active)	0.0948 µM (active)	0.193 µM (active)	0.164 µM (active)	0.206 µM (active)	0.0782 µM (active)
COCn1c2ccc(OC(C)=O)cc2c2c(=O)oc(C)nc21	> 100 µM (inactive)	> 100 µM (inactive)	> 100 µM (inactive)	> 100 µM (inactive)	> 100 µM (inactive)	> 100 µM (inactive)	> 100 µM (inactive)	> 100 µM (inactive)	> 100 µM (inactive)	> 100 µM (inactive)	> 100 µM (inactive)	> 100 µM (inactive)	> 100 µM (inactive)	> 100 µM (inactive)	> 100 µM (inactive)	> 100 µM (inactive)	> 100 µM (inactive)	50.4 µM (inactive)	> 100 µM (inactive)	> 100 µM (inactive)
O=c1/c(=C/c2ccc([N+](=O)[O-])o2)sc2n1[C@@H](c1ccc3c(c1)OCO3)C=C(c1cc(F)c(Cl)cc1Cl)N=2	22.3 µM (inactive)	23.3 µM (inactive)	61 µM (inactive)	21.7 µM (inactive)	13.4 µM (inactive)	17.3 µM (inactive)	3.33 µM (inactive)	17.3 µM (inactive)	12.6 µM (inactive)	23.8 µM (inactive)	16.4 µM (inactive)	23 µM (inactive)	15.7 µM (inactive)	8.91 µM (inactive)	10 µM (inactive)	5.11 µM (inactive)	9.31 µM (inactive)	56 µM (inactive)	21.6 µM (inactive)	10.3 µM (inactive)
O=CN1CCN(C(=O)c2ccco2)C1=S	15.9 µM (inactive)	14.3 µM (inactive)	22 µM (inactive)	19.4 µM (inactive)	5.13 µM (inactive)	12.5 µM (inactive)	2.11 µM (inactive)	4.07 µM (inactive)	4.12 µM (inactive)	4.38 µM (inactive)	11.3 µM (inactive)	17.3 µM (inactive)	19.7 µM (inactive)	8.24 µM (inactive)	2.7 µM (inactive)	12.2 µM (inactive)	2.24 µM (inactive)	16.5 µM (inactive)	3.08 µM (inactive)	12.6 µM (inactive)
